Test results published in patent publication US9034906B2, “EP4 agonist” (Asahi Glass Company, Limited, priority 2008, dated 2015).

How the values were obtained:
[1] = system: indomethacin-induced small intestinal injury; assay: Indomethacin-induced small intestinal injury model in rats; assay type: in vivo, rat; details: SD rats, 30 min before and 6 hr after indomethacin
From the text: The suppressive effect of compound F on small intestinal injury was investigated using indomethacin-induced small intestinal injury model in rats. Administration of non-steroidal anti-inflammatory drugs (NSAIDs) is known to induce hemorrhagic injury in the small intestine of human.
Male SD rats, 7 weeks old (Charles River) were purchased, acclimated for 1 week and used for the study. The rats were grouped based on the body weight and subcutaneously administered with indomethacin (SIGMA, Lot No. 19F0018) at 15 mg/5 mL/kg to all groups to induce small intestinal injury. Compound F at doses of 0.01, 0.1 and 1 mg/kg was orally administered at a volume of 5 mL/kg 30 min before and 6 hr after the subcutaneous administration of indomethacin. To the control group was orally administered a solvent (1 vol % ethanol solution) at 5 mL/kg in the same manner. Eight animals were used for each group.
The rats were intravenously administered with 2 mL of 10 mg/mL Evans blue solution under ether anesthesia 23.5 hr after the indomethacin administration. After 30 min, the rats were bled to death from the abdominal aorta and caudal vena cava under ether anesthesia and the small intestine was isolated. […] The length and width of each ulcer were measured under a stereomicroscope, the area was calculated, and the sum thereof was taken as the total ulcer area.

[2] = system: dextran sodium sulfate-induced colitis; assay: Dextran sodium sulfate-induced colitis model in mice (C57BL/6); assay type: in vivo, mouse; details: C57BL/6 mice, DSS, oral 0.3 and 1 mg/kg once a day
Protocol: Whether or not an IP agonist has an effect on such colitis model was determined using a selective IP agonist, BPS.
Female C57BL/6 mice (6 weeks old, Japan SLC) were purchased, acclimated for 1 week and used for the study. Except the normal group, the mice were allowed to freely drink a 3 or 2 w/v % DSS (MP Biochemicals, Lot No. 5653H and 5464H, respectively) solution for 1 week to induce colitis. BPS at a dose of 0.3 mg/kg and compound F at doses of 0.3 and 1 mg/kg were orally administered once a day, daily, from the start day of DSS drinking (day 0) to one day before autopsy (day 9). To the control group was orally administered a solvent (1 vol % ethanol solution) at 10 mL/kg in the same manner. The consistency of the stool was graded from score 0 to 4, with normal (0), partly loose stool (1), loose stool (2) and diarrhea (4). The blood feces was also graded from score 0 to 4, with normal (0), partly blood feces (1), blood feces (2) and blood feces plus proctorrhagia (4). The sum of both grades was defined as the stool score (maximum 8). Furthermore, the length of the large intestine was measured in the same manner as in Example 23. Six to 10 animals were used for each group, and the results are shown in average±standard deviation.

[3] = system: dextran sodium sulfate-induced colitis; assay: Dextran sodium sulfate-induced colitis in rats, prophylactic; assay type: in vivo, rat; details: SD rats, 5.5 w/v % DSS, oral 1 mg/kg and 3 mg/kg once a day
Protocol: Prophylactic effect of compound F on colitis was also studied in rats. Male SD rats, 7 weeks old, body weight around 210 g-240 g (Charles River) were purchased, acclimated for 1 week and used for the study. Except the normal group, the rats were allowed to freely drink a DSS (MP Biochemicals, M.W. 36,000-50,000, Lot No. 4556J) solution prepared to 5.5 w/v % for 8 days to induce colitis. Compound F at doses of 0.3, 1 and 3 mg/kg was orally administered once a day, daily, from one day before the start day of DSS drinking to one day before autopsy (day 7). To the control group was orally administered a solvent (1 vol % ethanol solution) at 5 mL/kg.
On day 8 from the start of DSS drinking, 1.25 w/v % Evans blue solution was administered at 0.2 mL/100 g from the tail vein. After 30 min, the rats were subjected to laparotomy under ether anesthesia and exsanguinated to death. Thereafter, the large intestine was dissected from just below the cecum to the anus, and the length was measured with a scale. […] The next day, the dry weight was measured, formamide (2 mL) was added, the dye was extracted at 50° C. overnight, and the level thereof was measured at 620 nm. A standard curve was prepared using an Evans blue standard solution, and the amount (mg) of Evans blue in 1 g of the colonic tissue was calculated to estimate degree of colonic tissue injury. […]

human EP4 = target: T1, human EP4 (Homo sapiens, UniProt P35408); assay: Receptor affinity, tritium-labeled PGE2 binding to membranes of transfected COS-7 cells; details: binding affinity ratio
T1 construct: expressed in transfected cells; host or cells: COS-7 (membranes)
T1 sequence (P35408 whole entry): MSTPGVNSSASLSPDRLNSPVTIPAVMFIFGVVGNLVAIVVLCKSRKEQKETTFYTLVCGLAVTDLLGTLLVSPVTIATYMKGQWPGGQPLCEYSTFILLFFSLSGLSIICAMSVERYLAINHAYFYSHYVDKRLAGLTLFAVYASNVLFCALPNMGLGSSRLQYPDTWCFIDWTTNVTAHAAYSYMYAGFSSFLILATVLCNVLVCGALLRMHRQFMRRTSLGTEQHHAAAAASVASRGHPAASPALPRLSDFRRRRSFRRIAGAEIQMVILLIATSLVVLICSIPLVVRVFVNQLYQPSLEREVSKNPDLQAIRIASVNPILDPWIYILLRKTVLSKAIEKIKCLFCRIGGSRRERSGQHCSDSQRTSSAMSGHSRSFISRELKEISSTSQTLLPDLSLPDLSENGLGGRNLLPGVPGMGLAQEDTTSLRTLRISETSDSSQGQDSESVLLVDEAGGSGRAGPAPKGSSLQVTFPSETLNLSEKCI
Protocol: PG receptor affinity of compound F and compound J of the present invention was evaluated. Compound F used was one synthesized in Example 9, and compound J was prepared by separating and purifying the compound synthesized in Example 14 with a column (the same preparations were used in the following Examples). COS-7 cells were transfected with the genes of mouse EP4, human EP1-4 or human IP to overexpress the receptor and then the cell membranes were collected. […] The dissociation constant Kd value was obtained and inhibition constant Ki value of each test compound was determined in a conventional method.

[4] = system: concanavalin A-induced hepatitis; assay: Concanavalin A-induced hepatitis model in mice, prophylactic; assay type: in vivo, mouse; details: BALB/c mice, oral 1 hr before Con A; compound F 1 mg/10 mL/kg, prednisolone 5 mg/10 mL/kg
Protocol: The prophylactic effect of compound F on hepatitis was investigated using concanavalin A (hereinafter Con A)-induced hepatitis model.
BALB/c mice (female, 7 weeks old, Japan SLC) were purchased, acclimated for 1 week and used for the study. Except the no-induction group, Con A (type IV, Sigma-Aldrich) dissolved in saline was administered from the tail vein of the mice at a dose of 12.5 mg/10 mL/kg to induce hepatitis. Twenty hr later, the mice were subjected to laparotomy under ether anesthesia. A 0.5 mL of blood sample was collected from the caudal vena cava and heparinized plasma was obtained to measure plasma ALT and AST activities. Test substances were compound F (1 mg/10 mL solution), prednisolone (Nacalai Tesque, 5 mg/10 mL suspension (with 0.5 w/v % methylcellulose)) and water for injection (administered to the control group), which were orally administered at a volume of 10 mL/kg 1 hr before Con A injection. Seven to 9 animals were used for each group. After logarithmic transformation of the data, one-way analysis of variance was performed for statistical evaluation.

Affinity for human EP4 higher than to human EP1, EP2 and EP3 (human EP4): ≥ 60 fold
Affinity for human EP4 higher than to human IP (human EP4): ≥ 100 fold
Compound: Cc1cccc([C@@H](C)[C@H](O)/C=C/[C@@H]2[C@@H]3[C@H](C[C@H]2O)O/C(=C\CCCc2nnn[nH]2)C3(F)F)c1 [Compound F, 4-[(Z)-(1S,5R,6R,7R)-6-[(1E,3R,4R)-3-hydroxy-4-(m-tolyl)-1-pentenyl]-7-hydroxy-2-oxa-4,4-difluoro-bicyclo[3.3.0]octan-3-ylidene]-1-(tetrazol-5-yl)butane]
Effect on total ulcer area (small intestine) ([1]; oral 1 mg/kg): completely reduced the area
Effect on total ulcer area (small intestine) ([1]; oral, from 0.1 mg/kg): significantly reduced the ulcer area in a dose-dependent manner
Effect on the onset of colitis (stool score, colon shortening) [2]: superior prophylactic effect
Effect on stool score, colonic tissue injury and shortening of the large intestine [3]: suppressive tendency or significant suppressive effect
Effect on increase of plasma ALT and plasma AST activities [4]: significantly and strongly suppressed the increase
